According to patent US20250163168A1, “NOVEL ANTIBODIES AND ANTIBODY CONJUGATES FOR THE TREATMENT OF METABOLIC DISORDERS” (PFIZER INC., priority 2023, published 2025):

Assays:
[1] = tested on: diet induced obese (DIO) male hGIPR mice; experiment: Oral glucose tolerance test (OGTT) in DIO male hGIPR mice; format: in vivo, mouse; settings: single dose 1 mpk, versus IgG (FIG. 5B)
Description: To test the efficacy of anti-GIPR antibodies GIPR-0107 and GIPR-2767 in vivo, humanized mice expressing hGIPR were made in which human GIPR is expressed under the control of the endogenous mouse Gipr locus while knocking out the mouse Gipr gene. Human GIPR cDNA-SV40 pA was inserted in-frame with mouse Gipr at the end of exon 2 (1st coding exon) utilizing CRISPR/Cas9 technology. Insertion of human GIPR cDNA and disruption of mouse Gipr was validated by genotyping, and human GIPR mRNA expression was confirmed by quantitative PCR. These hGIPR mice were used to measure the in vivo efficacy of GIPR-0107 and GIPR-2767 using oral glucose tolerance test (OGTT) and weight gain prevention studies.
Mice were singly housed, maintained on a 12-hour light/12-hour dark cycle, and received food and wr ad libitum. Prior to the start of the study, mice were weighed and randomized into groups based on body weight. […] Before dosing, mice were bled vial tail snip to obtain a basal blood glucose reading by AlphaTRAK handheld glucometer, and at time 0, mice were dosed with 1.5 g/kg glucose by oral gavage. Blood glucose was measured by glucometer at 15 min, 30 min, 60 min, and 120 min after glucose administration. […] All residuals were evaluated for meeting the normality assumption with the Shapiro-Wilks Test and Q-Q Plots and the sphericity and homoscedasticity assumption by the residual plots and Bartlett's test. […]

mouse GIPR/GIP = biological target: T1, mouse GIPR/GIP (Mus musculus, UniProt Q0P543); experiment: Cross-species activity to mouse GIPR/GIP
T1 sequence (Q0P543 19-460): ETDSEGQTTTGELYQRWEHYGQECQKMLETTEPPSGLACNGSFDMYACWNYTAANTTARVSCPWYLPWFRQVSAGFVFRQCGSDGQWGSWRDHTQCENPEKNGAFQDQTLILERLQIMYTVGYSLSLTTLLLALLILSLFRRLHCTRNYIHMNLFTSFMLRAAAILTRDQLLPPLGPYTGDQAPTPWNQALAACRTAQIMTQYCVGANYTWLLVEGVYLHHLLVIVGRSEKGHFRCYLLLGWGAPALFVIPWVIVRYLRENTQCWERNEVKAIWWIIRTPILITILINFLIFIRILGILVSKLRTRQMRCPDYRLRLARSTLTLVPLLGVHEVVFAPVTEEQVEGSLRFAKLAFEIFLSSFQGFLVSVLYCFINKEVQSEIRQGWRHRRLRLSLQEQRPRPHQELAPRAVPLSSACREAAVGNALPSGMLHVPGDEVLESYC

In the case of “2G10: fully human monoclonal anti-GIPR antagonist antibody portion of AMG 133 (maridebart cafraglutide); benchmark antibody [reference compound]”, the “baseline glucose adjusted AUC in OGTT” value [1] is reported as “not significantly different than IgG” and the “cross-reactivity to additional species such as mouse GIPR” value (mouse GIPR/GIP) is reported as “not cross-reactive”.
